Measured values reported in patent US20240325370A1, “THERAPEUTIC REGIMENS OF A DEGRADER OF BRD9” (FOGHORN THERAPEUTICS INC., priority 2021, published 2024).
Where two headings read alike, the source gives them in different places. Values belong to the compound of their own block, whether it stands above or below them.

Experiments:
[1] = test system: SYO-1 synovial sarcoma xenograft; test: Intermittent dosing schedules, IP, SYO-1 synovial sarcoma xenograft efficacy; format: in vivo, mice; details: for Day 21 Tumor Growth (%) / Day 21 Tumor Size (mm^3): SYO-1 tumor-bearing NOD SCID mice, Mean ± SEM
Text: (§1) The racemate, compound D1, which consists of ˜50% compound S-D1, was utilized in an SYO-1 (a synovial sarcoma xenograft) model to explore if similar efficacy is achievable with an intermittent dosing schedule. Due to technical feasibility and animal-welfare considerations, intraperitoneal (IP) administration was chosen over the IV route. […] Groups of female SYO-1 tumor-bearing NOD SCID mice (n=8/group) were intraperitoneally administered with vehicle or compound D1 for 21 days. Compound D1 was formulated as a suspension in 10% DMSO/40% PEG400/50% deionized water, volume/volume (v/v). […] To determine the level of modulation of BRD9 after each regimen, mice (n=4 mice/time-point) were euthanized and tumor samples were collected at different timepoints post-last dose (Day 21). […] BRD9 levels were assessed at 24, 72 and 168 hours (expected time points of trough plasma concentrations) for QD, BIW, and QW regimens respectively, as indicated in Table 8. Samples were analyzed using Western blot method.

BRD9 [2] = molecular target: T1, BRD9 (Homo sapiens, UniProt Q9H8M2); test: Tumor BRD9 modulation after each regimen, SYO-1 xenograft (western blot); format: in vivo, mice; design: from tissue; host or cells: SYO-1 xenograft tumours in BALB/c nude or NOD SCID mice
T1 sequence (Q9H8M2 1-597): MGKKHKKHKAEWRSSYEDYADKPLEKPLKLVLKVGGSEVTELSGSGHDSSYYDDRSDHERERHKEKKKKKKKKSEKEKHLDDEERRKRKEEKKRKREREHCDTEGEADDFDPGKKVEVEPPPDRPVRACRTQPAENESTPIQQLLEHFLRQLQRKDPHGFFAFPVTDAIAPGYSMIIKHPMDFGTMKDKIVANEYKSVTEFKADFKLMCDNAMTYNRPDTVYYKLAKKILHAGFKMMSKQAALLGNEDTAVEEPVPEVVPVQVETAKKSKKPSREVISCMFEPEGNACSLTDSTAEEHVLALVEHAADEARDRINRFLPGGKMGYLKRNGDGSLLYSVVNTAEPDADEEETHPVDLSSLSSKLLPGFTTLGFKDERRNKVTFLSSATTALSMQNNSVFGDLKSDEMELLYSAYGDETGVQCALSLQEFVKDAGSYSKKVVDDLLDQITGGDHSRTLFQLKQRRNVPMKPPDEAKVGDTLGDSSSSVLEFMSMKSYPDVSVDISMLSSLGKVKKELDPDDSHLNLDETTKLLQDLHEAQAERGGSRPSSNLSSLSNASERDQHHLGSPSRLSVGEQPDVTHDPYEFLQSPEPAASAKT
Text: as §1

BRD9 [3] = molecular target: T1, BRD9; test: BRD9 degradation by western blot in synovial sarcoma cells (SYO-1, ASKA); format: cell-based; details: for DC50: read-out: Fitted DC50
Method: Method. Synovial sarcoma cells were plated in 6-well plate at […] cells/well and treated with serial concentrations of BRD9 degrader (10 nM top concentration, diluted 1:3) the next day for two time points at 37° C. Cells were then harvested, washed with cold PBS, and frozen in cell pellets at −80° C. Lysates were prepared by resuspending thawed pellets in 1×RIPA Lysis and Extraction buffer (Thermo Fisher, Cat #89900) with 1× Halt™ Protease and Phosphatase Inhibitor Cocktail, EDTA-free (Thermo Fisher, Cat #78441) and 1:1000 dilution Pierce™ Universal Nuclease for Cell Lysis 25ku (Thermo Fisher, Cat #88700). Lysates were incubated on ice for 10 minutes and then centrifuged in 4° C. at maximum speed (15,000 rpm) for 10 minutes. Samples were then analyzed for total protein using BCA protein quantification assay and diluted to 1 ug/μL with lysis buffer and 1× NuPAGE™ LDS Sample Buffer (4×) (Thermo Fisher, Cat #NP0007) and 1×DTT from 30× stock (Cell Signaling Technologies, Cat #14265S). Samples with 20-25 ug of total protein were loaded into 4-12% Bis-Tris Mini-Gel with 1×MES Running buffer and run at 150V for 45 minutes. Gels were transferred using Trans-Blot® Turbo™ Transfer System (semi-dry) at 25V for 10 minutes (High MW setting) on nitrocellulose blots. Blots were blocked in 5% milk in TBST for 1 hour and probed with BRD9 antibody (Bethyl Labs, Cat #A303-781A, 1:750 for SYO1, and Cell Signaling Technologies, Cat #71232S for ASKA) and beta-Actin antibody (Cell Signaling Technologies, Cat #3700, 1:2000) overnight at 4° C. The next day, blots were washed in TBST 3× and probed with 1:5000 IRDye® 680LT Goat anti-Rabbit IgG Secondary Antibody (LICOR, Cat #926-68021) and 1:10000 IRDye® 800CW Goat anti-Mouse IgG Secondary Antibody (LiCOR, Cat #926-32210) in LiCOR Odyssey® Blocking Buffer (TBS) for 1 hour at room temperature. Blots were washed in TBST 3× and scanned at […] wavelength using LiCOR Odyssey® CLx Imaging System. Western blot signal was quantified using same analyses program included in the same machine. BRD9 signal was quantified by normalizing to beta-actin signal and all samples were normalized to DMSO, set as 100% signal.

[4] = 0.1 mg/kg QD × 21 days IP, Day 21
[5] = 0.35 mg/kg BIW × 3 weeks IP, Day 21
[6] = 0.5 mg/kg QD × 21 days IP, Day 21
[7] = 0.7 mg/kg QW × 3 weeks IP, Day 21
[8] = 3.5 mg/kg QW × 3 weeks IP, Day 21

Structure (SMILES): COc1cc(-c2cn(C)c(=O)c3cnc(N4CCC4)cc23)cc(OC)c1CN1CCC(CN2CCC3(CC2)CN(c2ccc4c(c2)C(=O)N(C2CCC(=O)NC2=O)C4)C3)CC1 (racemic) [Compound D1, 3-[6-(7-[[1-([4-[6-(azetidin-1-yl)-2-methyl-1-oxo-2,7-naphthyridin-4-yl]-2,6-dimethoxyphenyl]methyl)piperidin-4-yl]methyl]-2,7-diazaspiro[3.5]nonan-2-yl)-1-oxo-3H-isoindol-2-yl]piperidine-2,6-dione]
- T/C (%) [1, 4]: 25.4%
- TGI (%) [1, 4]: 74.6%
- Day 21 Tumor Growth (%) ([1]; 0.1 mg/kg QD × 21 days IP): 535 ± 39%
- Day 21 Tumor Size (mm^3) ([1]; 0.1 mg/kg QD × 21 days IP): 552 ± 59 mm^3
- T/C (%) [1, 5]: 49.0%
- TGI (%) [1, 5]: 51.0%
- Day 21 Tumor Growth (%) ([1]; 0.35 mg/kg BIW × 3 weeks IP): 1033 ± 64%
- Day 21 Tumor Size (mm^3) ([1]; 0.35 mg/kg BIW × 3 weeks IP): 1179 ± 117 mm^3
- T/C (%) [1, 6]: 13.4%
- TGI (%) [1, 6]: 86.6%
- Day 21 Tumor Growth (%) ([1]; 0.5 mg/kg QD × 21 days IP): 284 ± 21%
- Day 21 Tumor Size (mm^3) ([1]; 0.5 mg/kg QD × 21 days IP): 341 ± 57 mm^3
- T/C (%) [1, 7]: 45.1%
- TGI (%) [1, 7]: 54.9%
- Day 21 Tumor Growth (%) ([1]; 0.7 mg/kg QW × 3 weeks IP): 951 ± 115%
- Day 21 Tumor Size (mm^3) ([1]; 0.7 mg/kg QW × 3 weeks IP): 1065 ± 107 mm^3
- T/C (%) [1, 8]: 18.0%
- TGI (%) [1, 8]: 82.0%
- Day 21 Tumor Growth (%) ([1]; 3.5 mg/kg QW × 3 weeks IP): 379 ± 43%
- Day 21 Tumor Size (mm^3) ([1]; 3.5 mg/kg QW × 3 weeks IP): 449 ± 69 mm^3
- TGI compared to the vehicle control ([1]; all dosing regimens, IP, Day 21): significant TGI
- BRD9 PD effect in tumor at Cmin (BRD9 [2]; 0.35 mg/kg BIW or 0.7 mg/kg QW treatment): intermediate PD effect
- BRD9 depletion in tumor at Cmin (BRD9 [2]; 3.5 mg/kg QW and 0.5 mg/kg QD treated groups): Nearly complete BRD9 depletion

- DC50 (BRD9 [3]; ASKA, 0.5 h): 0.34 nM
- DC50 (BRD9 [3]; ASKA, 2 h): 0.012 nM
- BRD9 degradation compared with racemic parent compound D1 (BRD9 [3]; SYO-1, 1 or 6 hours (FIGS. 16 and 17)): slightly better
- DC50 (BRD9 [3]; SYO-1, 1 h): 0.092 nM
- DC50 (BRD9 [3]; SYO-1, 6 h): 0.023 nM
- potency in degradation of endogenous BRD9 protein (BRD9 [3]; two synovial sarcoma cell lines, early time point): much more potent
Structure (SMILES): COc1cc(-c2cn(C)c(=O)c3cnc(N4CCC4)cc23)cc(OC)c1CN1CCC(CN2CCC3(CC2)CN(c2ccc4c(c2)C(=O)N([C@H]2CCC(=O)NC2=O)C4)C3)CC1 (single isomer, unassigned) [Compound S-D1]
